Reference: patent US20110281762A1, “High throughput screening for anaerobic microorganisms” (priority 2010, published 2011)

How the values were obtained:
[1] = test system: Bacteroides thetaiotaomicron (Bt); assay: Growth of Bt in minimal medium with a fructose-based carbohydrate as only carbon source; type: cell-based; settings: substance as only carbon and energy source; for doubling time: Bt
Description: Bt upregulates its putative fructan PUL when grown on fructose-containing carbohydrates We inoculated minimal medium containing specific fructose-based carbohydrates as the only carbon and energy source with Bt to test if the bacterium is competent to grow on fructans. Bt grew on a broad range of fructose-based glycans, including free fructose, sucrose, levan (high MW fructose polymer with predominantly β2-6-linkages), and fructo-oligosaccharides (FOS; short-chain β2-1 polymers of 2-10 fructose units) (FIG. 1C). However, Bt grew poorly on inulin (β2-1 fructose polymer with an average degree of polymerization of ˜25), with growth only apparent three days after inoculation. Doubling times on simple monosaccharides and disaccharide were similar to one another.
(§1) Culturing bacteria. Bacteria were cultured in TYG and MM as described previously. The following bacteria were used: Bt (VPI-5482), B. caccae (ATCC-43185), B. ovatus (ATCC-8483), B. fragilis (NCTC-9343), B. uniformis (ATCC-8492), and B. vulgatus (ATCC-8482). Growth curves in MM were obtained using a Powerwave (Biotek) reading OD600 every 30 min from anaerobic cultures at 37° C.

Bt-ΔBT1754 = assay: Growth of isogenic mutant Bt-ΔBT1754 in minimal media; type: cell-based, Bacteroides thetaiotaomicron; settings: fructose-based minimal media
Description: The hybrid two-component system BT1754 is required for efficient fructan utilization by Bt. We assessed the ability of an isogenic mutant of Bt lacking the BT1754 gene to grow in a panel of fructose-based minimal media (MM) to test if upregulation of the PUL was dependent upon the HTCS signaling sensor. An in-frame, unmarked deletion of BT1754 was constructed using a standard counter-selectable allele-exchange procedure. […] Complementation of this mutant was achieved by introducing the genomic fragment containing BT1754 and its 5′ intergenic upstream promoter region in trans.
as §1

B. vulgatus = assay: Growth on long-chain fructan; type: cell-based
Description: In all six Bacteroides species, the HTCS is adjacent to a predicted fructokinase, a putative inner membrane monosaccharide importer, and GH32-family glycoside hydrolases. In each genome, except that of B. vulgatus, the syntenic regions also contain a susC/susD homologous pair. […] All Bacteroides species tested, except B. vulgatus, were able to grow efficiently using one of the long-chain fructans, inulin or levan. The inability of B. vulgatus to grow on long-chain fructans is consistent with the absence of a susC/susD-like pair within its locus. B. caccae, B. ovatus, B. fragilis and B. uniformis can utilize inulin with efficiency similar to their use of glucose. This contrasts with Bt inulin use, which is only observed after three days (FIG. 5). […]
Genomic content of Bacteroides species predicts changes in microbiota composition induced by an inulin-based diet. The differences in ability to utilize fructans between the Bacteroides species implies that the relative success of a species within a gut ecosystem may be determined, in part, by the abundance and type of fructan in the host diet. […] We constructed defined two-member communities of Bacteroides species within the intestines of gnotobiotic mice to test how model microbiotas respond in vivo to dietary inulin, which, unlike levan, is available in pure form in quantities sufficient to conduct such a study. […]

B. ovatus = assay: Growth on long-chain fructan; type: cell-based; settings: efficiency similar to use of glucose
Description: (§2) In all six Bacteroides species, the HTCS is adjacent to a predicted fructokinase, a putative inner membrane monosaccharide importer, and GH32-family glycoside hydrolases. In each genome, except that of B. vulgatus, the syntenic regions also contain a susC/susD homologous pair. […] All Bacteroides species tested, except B. vulgatus, were able to grow efficiently using one of the long-chain fructans, inulin or levan. The inability of B. vulgatus to grow on long-chain fructans is consistent with the absence of a susC/susD-like pair within its locus. B. caccae, B. ovatus, B. fragilis and B. uniformis can utilize inulin with efficiency similar to their use of glucose. This contrasts with Bt inulin use, which is only observed after three days (FIG. 5). Bt was the only species tested able to use levan, which was particularly striking when considering the overall similarity in PUL structure between Bt, B. caccae, and B. ovatus.
as §1

B. caccae = assay: Growth on long-chain fructan; type: cell-based; settings: efficiency similar to use of glucose
Description: as §2, §1

B. fragilis = assay: Growth on long-chain fructan; type: cell-based; settings: efficiency similar to use of glucose
Description: as §2, §1

B. uniformis = assay: Growth on long-chain fructan; type: cell-based; settings: efficiency similar to use of glucose
Description: as §2, §1

Bt and B. caccae = assay: Dietary inulin in gnotobiotic mice bi-associated with Bt and B. caccae, relative fecal proportion by qPCR; type: in vivo, germ-free Swiss-Webster mice
Description: (§3) Two groups of 8-12-week old, germ-free mice were colonized with equivalent quantities (10^8 colony forming units, CFU) of Bt and B. caccae or Bt and B. vulgatus. Each mouse was maintained on a standard polysaccharide-rich diet for the first 7 days of colonization and then switched to a diet in which the sole polysaccharide was inulin (10% w/w) for an additional 14 days. Mice were individually housed throughout the experiment to ensure no cross inoculation could occur and bedding was changed every two days. Total bacterial colonization density was determined by assessing the CFUs in feces over 21 days. The change in each species' relative abundance before and after dietary inulin supplementation was assessed using species-specific primers in a quantitative PCR assay.
In the previous experiment, inulin was the sole polysaccharide in the diet. We wondered whether we would observe the same inulin-induced increase in B. caccae relative to Bt if other polysaccharides were also present in the diet. To test this, gnotobiotic mice were co-colonized with Bt and B. caccae and maintained on the standard diet with inulin supplementation in the water (1% w/v). Over the 14 days the mice ingested an average of 117±6 mg of inulin daily via the water (compared to 355±7 mg/day with the inulin diet). Fecal samples were tested by qPCR over the course of the 21-day experiment for relative levels of Bt or B. caccae.
We decided to feed mice a custom diet deficient in all polysaccharides and supplement inulin in the water to determine whether a lower dose of inulin in the absence of other polysaccharides was sufficient to provide B. caccae a competitive advantage over Bt in vivo. Under this experimental paradigm the mice consumed an average of 97 mg of inulin per day. After. 14 days on inulin-water supplementation, the proportion of B. caccae increased by 26±8% (FIG. 6D). […] The wide range of polysaccharides present in the standard diet allows Bt to compete effectively with B. caccae even in the presence of inulin.
(§4) Bacterial colonization and density determination of germ-free mice. Germ-free Swiss-Webster mice were maintained in gnotobiotic isolators and fed an autoclaved standard diet (Purina LabDiet 5K67) or custom diet (Bio-Serv, http://bio-serv.com/), in accordance with A-PLAC, the Stanford IACUC. Mice were bi-associated using oral gavage (10^8 CFU of each bacterial species). Relative densities of bacteria were determined by qPCR using strain-specific primers.

Bt and B. vulgatus = assay: Dietary inulin in gnotobiotic mice bi-associated with Bt and B. vulgatus, relative fecal proportion by qPCR; type: in vivo, germ-free Swiss-Webster mice
Description: as §3, §4

[2] = biological target: periplasmic domain of BT1754 (BT1754-PD; residues 29-343) (Bacteroides thetaiotaomicron, UniProt Q8A6X1); assay: Isothermal calorimetry binding to the periplasmic domain of BT1754
Description: The periplasmic domain of the hybrid two-component system BT1754 binds to monomeric fructose. One of the key unanswered questions concerning the HTCS family, and many extracellular sensory systems, is the identity of the molecular triggers for signaling events. […] (FIG. 2B). […] As PBPs are known to bind small molecules such as sugars, we expressed the periplasmic domain of BT1754 (BT1754-PD; residues 29-343) in a recombinant form and tested for binding to a range of monosaccharides and fructan-derived oligosaccharides to see if direct interaction with a specific carbohydrate is the means of signal perception in BT1754.
Isothermal titration calorimetry. Measurements were carried out essentially as described previously, except that a Microcal VP-ITC machine was used, and proteins were dialyzed into 20 mM Tris-HCl, pH8.0. The assumption that n=1 for BT1762 binding to levan was based on the structure of the starch binding SusD.

[3] = test system: all six Bacteroides species; assay: Growth of six Bacteroides species on fructose-based glycans; type: cell-based
Description: as §2, §1

[4] = after two weeks on inulin diet (day 21), n=7 mice

Sequence of periplasmic domain of BT1754 (BT1754-PD; residues 29-343) (Q8A6X1 entry or part of it, change not shown): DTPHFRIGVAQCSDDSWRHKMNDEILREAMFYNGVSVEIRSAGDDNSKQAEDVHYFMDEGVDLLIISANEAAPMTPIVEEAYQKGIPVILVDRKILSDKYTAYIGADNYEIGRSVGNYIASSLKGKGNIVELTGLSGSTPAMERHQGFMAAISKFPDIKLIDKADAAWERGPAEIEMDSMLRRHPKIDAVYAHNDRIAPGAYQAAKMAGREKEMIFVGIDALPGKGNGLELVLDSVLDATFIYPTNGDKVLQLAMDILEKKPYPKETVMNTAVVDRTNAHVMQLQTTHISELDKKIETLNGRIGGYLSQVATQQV

Row | Compound | doubling time [1] | growth of Bt [1] | growth of Bt-ΔBT1754 (Bt-ΔBT1754) | growth [3] | other results
1 | inulin | 96.4 h | grew poorly | failed to grow | – | inulin utilization (B. vulgatus): unable to utilize; inulin utilization (B. ovatus): can utilize; inulin utilization (B. caccae): can utilize; inulin utilization (B. fragilis): can utilize; inulin utilization (B. uniformis): can utilize; B. caccae proportion of community (Bt and B. caccae; [4]): 51±6%; Bt proportion of community (Bt and B. caccae; [4]): approximately 49±6%; increase in proportion of B. caccae (Bt and B. caccae; custom diet deficient in all polysaccharides, inulin in the water, 14 days): 26±8%; increase in proportion of B. caccae (Bt and B. caccae; inulin-only diet experiment, day 6 to day 21): 36±7%; B. caccae proportion of community (Bt and B. caccae; six days after change to inulin-based diet (10% w/w)): 20±4%; Bt proportion of community (Bt and B. caccae; six days after change to inulin-based diet (10% w/w, sole polysaccharide), 87±3% before switch): 80±4%; change in relative colonization of Bt and B. caccae versus controls (Bt and B. caccae; standard diet with inulin in the water (1% w/v), 14 days): no statistical difference; change in community composition (Bt and B. vulgatus; after 6 days on inulin-based diet): did not exhibit any significant trend; Bt abundance (Bt and B. vulgatus; day 21, inulin enriched diet, 74±3% on day 6, p=0.1, n=3 mice): 84±5%
2 | O=C(CO)[C@@H](O)[C@H](O)[C@H](O)CO [fructose] | – | grew on | retarded growth | competent for growth | Kd [2]: ~2000 nM
3 | fructo-oligosaccharides [FOS] | 5.6 h | grew on | failed to grow | competent for growth | –
4 | levan | 2.7 h | grew on | failed to grow | – | –
5 | OC[C@H]1O[C@@](CO)(O[C@H]2O[C@H](CO)[C@@H](O)[C@H](O)[C@H]2O)[C@@H](O)[C@@H]1O [sucrose] | – | grew on | retarded growth | competent for growth | –
6 | O=C[C@H](O)[C@H](O)[C@H](O)CO [ribose] | – | – | – | – | interaction with BT1754-PD ([2]; isothermal calorimetry): does not interact
